Measured values: US20020049250A1, “PPAR receptor activator compounds for treating cutaneous disorders/afflictions” (priority 1999, published 2002)

What was measured:
Type in all cases: cell-based
PPAR-β = target: T1, PPAR-β (Homo sapiens, UniProt Q03181); assay: PPAR-type receptor transactivation test (luciferase reporter), PPAR-β; details: for Emax: HeLa, 24 h, read-out: % activation β; for AC50 / % activation β: cotransfected HeLa cells treated 24 hours; for AC50: luciferase, concentration giving 50% of the activity of reference molecule; for % activation β: luciferase activity, relative to reference molecule Reference 2
T1 construct: expressed in transfected cells; host or cells: HeLa cells
T1 sequence (Q03181 1-441): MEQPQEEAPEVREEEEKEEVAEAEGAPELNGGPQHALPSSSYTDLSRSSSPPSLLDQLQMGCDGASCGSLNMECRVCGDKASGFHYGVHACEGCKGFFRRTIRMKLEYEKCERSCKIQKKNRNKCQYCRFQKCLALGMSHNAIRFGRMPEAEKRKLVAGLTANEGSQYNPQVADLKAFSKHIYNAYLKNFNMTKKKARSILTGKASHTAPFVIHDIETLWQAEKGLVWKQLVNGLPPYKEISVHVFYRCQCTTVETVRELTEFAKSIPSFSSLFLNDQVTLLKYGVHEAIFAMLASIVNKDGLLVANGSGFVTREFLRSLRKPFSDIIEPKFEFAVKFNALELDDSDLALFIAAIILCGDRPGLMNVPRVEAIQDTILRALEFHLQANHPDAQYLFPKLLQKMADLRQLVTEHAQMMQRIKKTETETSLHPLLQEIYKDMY
Method: (§1) This activity is determined with the aid of a reporter enzyme (luciferase) for activation due to the compound via one of the PPAR receptors.
(§2) The biological tests carried out correspond to those described above. […] Thus, the activating power via PPAR-α, PPAR-γ or PPAR-δ of molecules may be evaluated with a transactivation test in which HeLa cells were cotransfected with an expression vector encoding these receptors and a reporter plasmid containing a PPRE response element cloned upstream of part of an SV40 virus promoter and of the luciferase gene. The cotransfected cells were treated for 24 hours with the molecules to be tested and the luciferase activity was determined by luminescence.

PPAR-α = target: T2, PPAR-α (Homo sapiens, UniProt Q07869); assay: PPAR-type receptor transactivation test (luciferase reporter), PPAR-α; details: for Emax: HeLa, 24 h, read-out: % activation α; for AC50 / % activation α: cotransfected HeLa cells treated 24 hours; for AC50: luciferase, concentration giving 50% of the activity of reference molecule; for % activation α: luciferase activity, relative to reference molecule Reference 1
T2 construct: expressed in transfected cells; host or cells: HeLa cells
T2 sequence (Q07869 1-468): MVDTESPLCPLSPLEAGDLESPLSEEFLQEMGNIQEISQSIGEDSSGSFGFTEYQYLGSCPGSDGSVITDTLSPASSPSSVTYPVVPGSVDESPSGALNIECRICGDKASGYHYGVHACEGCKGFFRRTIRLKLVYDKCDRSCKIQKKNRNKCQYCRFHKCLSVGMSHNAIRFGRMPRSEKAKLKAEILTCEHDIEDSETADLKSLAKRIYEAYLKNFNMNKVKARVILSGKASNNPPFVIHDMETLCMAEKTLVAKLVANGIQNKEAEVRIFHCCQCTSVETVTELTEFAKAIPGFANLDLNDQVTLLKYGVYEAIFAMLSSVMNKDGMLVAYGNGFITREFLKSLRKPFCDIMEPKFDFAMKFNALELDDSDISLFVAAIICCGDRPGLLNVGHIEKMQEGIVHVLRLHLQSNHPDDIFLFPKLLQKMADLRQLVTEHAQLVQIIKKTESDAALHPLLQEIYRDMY
Method: as §1, §2

PPAR-γ = target: T3, PPAR-γ (Homo sapiens, UniProt P37231); assay: PPAR-type receptor transactivation test (luciferase reporter), PPAR-γ; details: for Emax: HeLa, 24 h, read-out: % activation γ; for AC50 / % activation γ: cotransfected HeLa cells treated 24 hours; for AC50: luciferase, concentration giving 50% of the activity of reference molecule; for % activation γ: luciferase activity, relative to reference molecule Reference 2
T3 construct: expressed in transfected cells; host or cells: HeLa cells
T3 sequence (P37231 1-505): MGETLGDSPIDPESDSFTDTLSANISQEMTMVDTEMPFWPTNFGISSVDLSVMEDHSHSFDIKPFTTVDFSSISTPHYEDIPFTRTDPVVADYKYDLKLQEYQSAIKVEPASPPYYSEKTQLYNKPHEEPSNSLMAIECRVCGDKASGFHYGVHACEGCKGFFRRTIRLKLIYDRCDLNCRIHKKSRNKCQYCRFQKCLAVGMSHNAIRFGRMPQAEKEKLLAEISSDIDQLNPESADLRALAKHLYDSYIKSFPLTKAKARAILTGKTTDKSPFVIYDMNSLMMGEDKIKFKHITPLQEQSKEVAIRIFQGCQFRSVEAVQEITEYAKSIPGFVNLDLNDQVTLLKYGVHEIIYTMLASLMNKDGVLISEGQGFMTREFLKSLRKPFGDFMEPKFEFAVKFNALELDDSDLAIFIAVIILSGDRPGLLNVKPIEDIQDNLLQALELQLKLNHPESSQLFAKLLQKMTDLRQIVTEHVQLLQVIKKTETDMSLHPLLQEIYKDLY
Method: as §1, §2

Compound	Emax (PPAR-β) [%]	AC50 (PPAR-β) [nM]	Emax (PPAR-α) [%]	AC50 (PPAR-α) [nM]	Emax (PPAR-γ) [%]	AC50 (PPAR-γ) [nM]	% activation β (PPAR-β) [%]	% activation α (PPAR-α) [%]	% activation γ (PPAR-γ) [%]
CC(C)(C)c1ccc(C(=O)c2ccc3cc(C(=O)O)ccc3c2)cc1 [Compound 3, 6-(4-tert-butylbenzoyl)naphthalene-2-carboxylic acid]	277	300	63	1000	148	360	–	–	–
COc1ccc(C(=O)c2ccc(C(=O)O)cc2)cc1C12CC3CC(CC(C3)C1)C2 [compound 7, 4-(3-adamantan-1-yl-4-methoxybenzoyl)benzoic acid]	23	–	0	–	0	–	–	–	–
CC1(C)CCc2cc(C(=O)c3ccc4cc(C(=O)O)ccc4c3)ccc2O1 [Compound 2, 6-(2,2-dimethylchroman-6-carbonyl)naphthalene-2-carboxylic acid]	280	700	48	900	190	1500	–	–	–
6-(2,4-diisopropylbenzoyl)napthalene-2-carboxylic acid [compound 3]	–	–	–	–	–	–	19	6	3
COc1ccc(C(=O)c2ccc3cc(C(=O)O)ccc3c2)cc1-c1ccccc1 [Comparative Example 4, 6-(6-methoxybiphenyl-3-carbonyl)napthalene-2-carboxylic acid]	–	–	–	–	–	–	23	6	2
COc1cc(C(=O)c2ccc3cc(C(=O)O)ccc3c2)ccc1C12CC3CC(CC(C3)C1)C2 [compound 5, 6-(4-adamantan-1-yl-3-methoxybenzoyl)naphthalene-2-carboxylic acid]	8	–	6	–	3	–	–	–	–
CC1(C)CCOc2ccc(C(=O)c3ccc4cc(C(=O)O)ccc4c3)cc21 [Compound 5, 6-(4,4-dimethylchroman-6-carbonyl)naphthalene-2-carboxylic acid]	92	–	16	–	36	–	–	–	–
CCCCOC(c1ccc2c(c1)C(C)(C)CCC2(C)C)c1ccc2cc(C(=O)O)ccc2c1 (stereo not shown) [Comparative Example 1, 6-[butoxy(5,5,8,8-tetramethyl-5,6,7,8-tetrahydronaphthalen-2-yl)methyl]naphthalene-2-carboxylic acid]	28	–	0	–	7	–	–	–	–
COc1ccc(C(O)c2ccc(C(=O)O)cc2)cc1C12CC3CC(CC(C3)C1)C2 (stereo not shown) [Comparative Example 6, 4-[(3-adamantan-1-yl-4-methoxyphenyl)hydroxymethyl]benzoic acid]	16	–	4	–	7	–	–	–	–
C-(6-carboxynaphthalen-2-yl)-C-(5,5,8,8-tetramethyl-5,6,7,8-tetrahydronaphthalen-2-yl)methylammonium [compound 2]	–	–	–	–	–	–	1	1	13
O=C(O)c1ccc2cc(C(=O)c3ccc4c(c3)CCCC4)ccc2c1 [Compound 4, 6-(5,6,7,8-tetrahydronaphthalene-2-carbonyl)naphthalene-2-carboxylic acid]	291	500	40	2000	174	800	–	–	–
Cc1cccc(Nc2cc(Cl)nc(SCC(=O)O)n2)c1C [Reference 1, [4-chloro-6-(2,3-dimethylphenylamino)pyrimidin-2-ylsulphanyl]acetic acid]	–	–	–	–	–	–	–	100	–
